Measurements: patent US8389539B2, “Azacyclic derivatives” (Hoffman-La Roche Inc., priority 2009, dated 2013)
pIC50: −log10 of the molar value.

target: T1, human HSL (Homo sapiens, UniProt Q05469); experiment: Human Hormone-Sensitive Lipase (HSL) enzyme inhibition assay (colorimetric, DMPT substrate); format: biochemical; details: human full length HSL-His6, 2,3-dimercapto-1-propanol tributyrate substrate, 37° C. 20 minutes, absorbance at 405 nm; read-out: HSL hum IC50
T1 construct: overlapping PCR to generate a full length human HSL ORF with a 3′-His6 tag; His6 (C); made in house; host or cells: High 5 insect cells (baculovirus, pFast-BAC)
T1 sequence (Q05469 1-1076): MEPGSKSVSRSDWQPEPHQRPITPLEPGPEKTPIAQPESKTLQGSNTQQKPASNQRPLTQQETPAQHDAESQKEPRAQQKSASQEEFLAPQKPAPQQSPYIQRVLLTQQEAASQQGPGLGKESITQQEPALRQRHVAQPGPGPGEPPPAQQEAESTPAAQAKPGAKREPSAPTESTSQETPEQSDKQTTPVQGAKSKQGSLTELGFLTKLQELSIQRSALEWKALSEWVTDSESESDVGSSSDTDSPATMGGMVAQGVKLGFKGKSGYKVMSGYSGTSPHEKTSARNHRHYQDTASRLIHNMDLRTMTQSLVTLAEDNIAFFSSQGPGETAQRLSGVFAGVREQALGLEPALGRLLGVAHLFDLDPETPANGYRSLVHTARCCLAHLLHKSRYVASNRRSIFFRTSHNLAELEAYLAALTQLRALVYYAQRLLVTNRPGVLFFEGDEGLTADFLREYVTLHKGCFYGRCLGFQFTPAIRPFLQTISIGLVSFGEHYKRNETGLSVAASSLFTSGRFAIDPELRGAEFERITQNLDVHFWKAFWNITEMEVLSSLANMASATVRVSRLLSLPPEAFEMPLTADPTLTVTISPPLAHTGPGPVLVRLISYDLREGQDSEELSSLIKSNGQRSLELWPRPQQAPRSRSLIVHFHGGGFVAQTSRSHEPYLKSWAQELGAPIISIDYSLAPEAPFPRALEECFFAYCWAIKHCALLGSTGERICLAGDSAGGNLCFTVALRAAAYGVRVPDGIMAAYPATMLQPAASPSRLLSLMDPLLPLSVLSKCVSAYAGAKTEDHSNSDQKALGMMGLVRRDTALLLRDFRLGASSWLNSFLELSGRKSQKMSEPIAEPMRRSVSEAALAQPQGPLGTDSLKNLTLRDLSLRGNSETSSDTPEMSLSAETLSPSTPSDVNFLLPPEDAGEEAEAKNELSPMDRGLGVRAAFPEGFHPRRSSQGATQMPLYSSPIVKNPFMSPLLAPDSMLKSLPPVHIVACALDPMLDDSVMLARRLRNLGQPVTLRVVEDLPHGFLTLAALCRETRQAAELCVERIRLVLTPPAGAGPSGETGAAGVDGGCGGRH
Protocol: 1) Cloning: cDNA was prepared from commercial human brain polyA+ RNA and used as a template in overlapping PCR to generate a full length human HSL ORF with a 3′-His6 tag. This full length insert was cloned into the pFast-BAC vector and the DNA-sequence of several single clones was verified. DNA from a correct full length clone with the 3′His6 tag was used to transform the E. coli strain DH10BAC. Resulting bacmid DNA was used to generate a titered baculovirus stock for protein generation.
Cells were thawed. […] was done at 3×30 sec., Lubrol PX was added to 0.2% final concentration followed by stirring for 15 min. at 4° C. and centrifugation at 25 k×g, 60 min., 4° C. […] Supernatant was removed, the resin washed in the centrifuge vessel using 5 volumes of Base Buffer containing 0.2% Lubrol PX. Centrifugation was done again, then the supernatant discarded. The resin was poured onto a 0.8 μm membrane in a disposable filter unit (Nalge 450-0080), and washed with 5 volumes of Base Buffer containing 0.2% Lubrol PX. It was then washed with 30 volumes of Base Buffer containing 60 mM imidazole pH 7.5 at 4° C. The protein was eluated with 5 volumes of 25 mM Tris-Cl, 300 mM NaCl, 200 mM imidazole, 10 mM 2-mercaptoethanol, pH 7.5 at 4° C. by tumbling resin with buffer end-over-end, 30 min., 4° C. The resin was captured on a 0.2 μm membrane disposable filter unit (Millipore SCGP U02 RE) and the eluate collected in the reservoir. The eluate was concentrated using a 30 k MWCO centrifugal filter device (Sartorius Vivascience Vivacell 100, VC1022), to 20 ml. It was then dialyzed overnight at 4° C., two times against 2 L of 10% glycerol, 25 mM Tris-Cl, 300 mM NaCl, 0.2 mM EDTA, 0.2 mM DTT, pH 7.5 at 4° C. The protein was filtered using a 0.22 μm disposable filter unit (Millipore SCGP00525). The protein concentration was calculated from absorbance at 280 nm, using 280=0.67 cm-1 mg-1. […] The protein was stored at −80° C.
Human Hormone-Sensitive Lipase (HSL) Enzyme Inhibition Assay:
HSL enzyme activity was measured by a colorimetric assay using 2,3-dimercapto-1-propanol tributyrate (Aldrich, St. Louis, Mo.) as a substrate. Typically, 1.5 mM 2,3-dimercapto-1-propanol tributyrate (DMPT) in 100 mM MOPS, pH 7.2, 0.2 mg/ml fatty acid-free BSA was prepared by sonication at 4° C. to homogenous suspension. Test compounds (2 mM stock in DMSO) were diluted 3 fold in series in DMSO. Compound solutions were diluted 24 fold in 1.5 mM DMPT containing solution and 18 ul per well was added to 384-well microplates (Corning Costar). Twelve microliters per well of human HSL (15 ug/ml) was added and the reaction mixture was incubated at 37° C. for 20 minutes. Six microliters of 12 mM dithio-bis-(2-nitrobenzoic acid) (DTNB) in DMSO plus 1.2% SDS and 0.6% Triton X-100 were added and the mixture was incubated at room temperature for 15 minutes. Product production was monitored by reading absorbance at 405 nm on an Envision Reader (PerkinElmer Life and Analytical Sciences, Shelton, Conn.).

SMILES | pIC50
C[C@@H](Oc1ccc(N2CCC3(CCN(CC(O)c4c(F)cccc4Cl)CC3)C2=O)cn1)C(F)(F)F (stereo partly drawn) [Example 49, 8-[2-(2-Chloro-6-fluoro-phenyl)-2-hydroxy-ethyl]-2-[6-((R)-2,2,2-trifluoro-1-methyl-ethoxy)-pyridin-3-yl]-2,8-diaza-spiro[4.5]decan-1-one] | 7.38
C[C@H](Oc1ccc(N2CCC3(CCN(CC(O)c4ccc(Cl)cc4Cl)CC3)C2=O)cn1)C(F)(F)F (stereo partly drawn) [Example 53, 8-[2-(2,4-Dichloro-phenyl)-2-hydroxy-ethyl]-2-[6-((S)-2,2,2-trifluoro-1-methyl-ethoxy)-pyridin-3-yl]-2,8-diaza-spiro[4.5]decan-1-one] | 7.37
C[C@H](Oc1ccc(N2CCC3(CCN(CC(O)c4c(F)cccc4Cl)CC3)C2=O)cc1)C(F)(F)F (stereo partly drawn) [Example 54, 8-[2-(2-Chloro-6-fluoro-phenyl)-2-hydroxy-ethyl]-2-[4-((S)-2,2,2-trifluoro-1-methyl-ethoxy)-phenyl]-2,8-diaza-spiro[4.5]decan-1-one] | 7.54
C[C@H](Oc1ccc(N2CCC3(CCN(CC(O)c4c(F)cccc4Cl)CC3)C2=O)cn1)C(F)(F)F (stereo partly drawn) [Example 55, 8-[2-(2-Chloro-6-fluoro-phenyl)-2-hydroxy-ethyl]-2-[6-((S)-2,2,2-trifluoro-1-methyl-ethoxy)-pyridin-3-yl]-2,8-diaza-spiro[4.5]decan-1-one] | 7.42

Now those with a higher pIC50, led by results:

pIC50 | SMILES
7.64 | C[C@@H](Oc1ccc(N2CCC3(CCN(CC(O)c4c(F)cccc4Cl)CC3)C2=O)cc1)C(F)(F)F (stereo partly drawn) [Example 48, 8-[2-(2-Chloro-6-fluoro-phenyl)-2-hydroxy-ethyl]-2-[4-((R)-2,2,2-trifluoro-1-methyl-ethoxy)-phenyl]-2,8-diaza-spiro[4.5]decan-1-one]
7.74 | O=C1N(c2ccc(CC(F)(F)F)cc2)CCC12CCN(CC(O)c1c(F)cccc1Cl)CC2 (centres unmarked) [Example 50, 8-[2-(2-Chloro-6-fluoro-phenyl)-2-hydroxy-ethyl]-2-[4-(2,2,2-trifluoro-ethyl)-phenyl]-2,8-diaza-spiro[4.5]decan-1-one]
7.66 | C[C@@H](Oc1ccc(N2CCC3(CCN(CC(O)c4ccc(Cl)cc4Cl)CC3)C2=O)cc1)C(F)(F)F (stereo partly drawn) [Example 51, 8-[2-(2,4-Dichloro-phenyl)-2-hydroxy-ethyl]-2-[4-((R)-2,2,2-trifluoro-1-methyl-ethoxy)-phenyl]-2,8-diaza-spiro[4.5]decan-1-one]
7.70 | C[C@H](Oc1ccc(N2CCC3(CCN(CC(O)c4ccc(Cl)cc4Cl)CC3)C2=O)cc1)C(F)(F)F (stereo partly drawn) [Example 52, 8-[2-(2,4-Dichloro-phenyl)-2-hydroxy-ethyl]-2-[4-((S)-2,2,2-trifluoro-1-methyl-ethoxy)-phenyl]-2,8-diaza-spiro[4.5]decan-1-one]
